{
  "source": "patent US9247759B2",
  "about": "“Identification of human T2R receptors that respond to bitter compounds that elicit the bitter taste in compositions, and the use thereof in assays to identify compounds that inhibit (block) bitter taste in compositions and use thereof” (SENOMYX, INC., priority 2007, dated 2016)",
  "target": "hT2R8 (Homo sapiens (Human), UniProt Q9NYW2)",
  "sequence (Q9NYW2 whole entry)": "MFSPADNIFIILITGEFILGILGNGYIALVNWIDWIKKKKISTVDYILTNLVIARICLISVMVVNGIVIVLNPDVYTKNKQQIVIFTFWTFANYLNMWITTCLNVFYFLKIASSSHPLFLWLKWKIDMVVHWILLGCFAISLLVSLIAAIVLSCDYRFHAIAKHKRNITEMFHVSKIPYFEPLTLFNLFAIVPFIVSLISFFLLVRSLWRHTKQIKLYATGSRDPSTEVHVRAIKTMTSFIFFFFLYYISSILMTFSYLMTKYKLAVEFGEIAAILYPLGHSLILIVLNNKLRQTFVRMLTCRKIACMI",
  "assay": "hT2R8 antagonist high-throughput FLIPR assay, stable cell line with G16g44, agonist andrographolide",
  "format": "cell-based",
  "method_in_brief": "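Antagonist screen: compounds co-applied with agonist andrographolide at 200 μM, a dose giving 70–80% of maximal hT2R8 activation. Fluorescence measured by FLIPR in a stable HEK293 line expressing both hT2R8 and the promiscuous G16g44 protein.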",
  "key": {"[1]": {"details": "read-out: IC50 on hT2R8 bitter receptor"}, "[2]": {"details": "table after Example 10-97, read-out: hT2R8 IC50"}, "[3]": {"details": "table after Example 12-37, read-out: hT2R8 IC50"}},
  "note": "Like-named read-outs stand apart in the source and are kept apart here.",
  "data": [
    {"compound": "Cc1noc(C)c1Cn1cc(N2C(=O)NC(C)C2=O)cn1", "note": "(stereo not shown) [Example 10-41, 3-(1-((3,5-dimethylisoxazol-4-yl)methyl)-1H-pyrazol-4-yl)-5-methylimidazolidine-2,4-dione]", "values": [
      {"measurement": "IC50", "setting": "[1]", "result": 1.3, "unit": "µM"},
      {"measurement": "IC50", "setting": "[2]", "result": 1.28, "unit": "µM"}
    ]},
    {"compound": "Cc1noc(C)c1Cn1cc(NC(=O)c2cccc(S(C)(=O)=O)c2)cn1", "note": "[Example 4-26, N-(1-((3,5-dimethylisoxazol-4-yl)methyl)-1H-pyrazol-4-yl)-3-(methylsulfonyl)benzamide]", "values": [
      {"measurement": "IC50", "setting": "Table A, read-out: hT2R8 IC50", "result": 0.72, "unit": "µM"}
    ]},
    {"compound": "Cc1noc(C)c1Cn1cc(N2C(=O)CN(Cc3ccccc3)C2=O)cn1", "note": "[Example 10-53, 1-benzyl-3-(1-((3,5-dimethylisoxazol-4-yl)methyl)-1H-pyrazol-4-yl)imidazolidine-2,4-dione]", "values": [
      {"measurement": "IC50", "setting": "[1]", "result": 0.09, "unit": "µM"},
      {"measurement": "IC50", "setting": "[2]", "result": 0.257, "unit": "µM"}
    ]},
    {"compound": "COc1ccc(CN2C(=O)N(c3cnn(Cc4c(C)noc4C)c3)C(=O)C2(C)C)cc1", "note": "[Example 12-33, 3-(1-((3,5-dimethylisoxazol-4-yl)methyl)-1H-pyrazol-4-yl)-1-(4-methoxybenzyl)-5,5-dimethylimidazolidine-2,4-dione]", "values": [
      {"measurement": "IC50", "setting": "[1]", "result": 0.11, "unit": "µM"}
    ]},
    {"compound": "Cc1noc(C)c1Cn1cc(N(C)C(=O)C(C)c2ccccc2)cn1", "note": "(stereo not shown) [Example 4-97, N-(1-((3,5-dimethylisoxazol-4-yl)methyl)-1H-pyrazol-4-yl)-N-methyl-2-phenylpropanamide]", "values": [
      {"measurement": "IC50", "setting": "Table A, read-out: hT2R8 IC50", "result": 2.13, "unit": "µM"}
    ]},
    {"compound": "CCc1nc2cc(C(=O)Nc3cnn(Cc4c(C)noc4C)c3)ccc2o1", "note": "[Example 4-81, N-(1-((3,5-dimethylisoxazol-4-yl)methyl)-1H-pyrazol-4-yl)-2-ethylbenzo[d]oxazole-5-carboxamide]", "values": [
      {"measurement": "IC50", "setting": "Table A, read-out: hT2R8 IC50", "result": 0.8, "unit": "µM"}
    ]},
    {"compound": "COCc1cccc(CN2C(=O)N(c3cnn(Cc4c(C)noc4C)c3)C(=O)C23CC3)c1", "note": "[Example 12-14, 6-(1-((3,5-dimethylisoxazol-4-yl)methyl)-1H-pyrazol-4-yl)-4-(3-(methoxymethyl)benzyl)-4,6-diazaspiro[2.4]heptane-5,7-dione]", "values": [
      {"measurement": "IC50", "setting": "[1]", "result": 0.03, "unit": "µM"}
    ]},
    {"compound": "Cc1noc(C)c1Cn1cc(N2C(=O)NC(C(C)C)C2=O)cn1", "note": "(stereo not shown) [Example 10-62, 3-(1-((3,5-dimethylisoxazol-4-yl)methyl)-1H-pyrazol-4-yl)-5-isopropylimidazolidine-2,4-dione]", "values": [
      {"measurement": "IC50", "setting": "[1]", "result": 1.1, "unit": "µM"},
      {"measurement": "IC50", "setting": "[2]", "result": 1.44, "unit": "µM"}
    ]},
    {"compound": "COc1cc(C(=O)Nc2cnn(Cc3c(C)noc3C)c2)cc2c1OCO2", "note": "[Example 4-92, N-(1-((3,5-dimethylisoxazol-4-yl)methyl)-1H-pyrazol-4-yl)-7-methoxybenzo[d][1,3]dioxole-5-carboxamide]", "values": [
      {"measurement": "IC50", "setting": "[1]", "result": 0.7, "unit": "µM"}
    ]},
    {"compound": "Cc1noc(C)c1Cn1cc(N2C(=O)N(CCc3ccccc3F)C(C)(C)C2=O)cn1", "note": "[Example 12-53, 3-(1-((3,5-dimethylisoxazol-4-yl)methyl)-1H-pyrazol-4-yl)-1-(2-fluorophenethyl)-5,5-dimethylimidazolidine-2,4-dione]", "values": [
      {"measurement": "IC50", "setting": "[3]", "result": 0.2, "unit": "µM"}
    ]},
    {"compound": "Cc1noc(C)c1Cn1cc(N2C(=O)N(Cc3cccc(C#N)c3)C(C)(C)C2=O)cn1", "note": "[Example 12-42, 3-((3-(1-((3,5-dimethylisoxazol-4-yl)methyl)-1H-pyrazol-4-yl)-5,5-dimethyl-2,4-dioxoimidazolidin-1-yl)methyl)benzonitrile]", "values": [
      {"measurement": "IC50", "setting": "[3]", "result": 0.09, "unit": "µM"}
    ]},
    {"compound": "Cc1noc(C)c1Cn1cnc(NC(=O)c2ccc3c(c2)OCO3)c1", "note": "[Example 10-40, N-(1-((3,5-dimethylisoxazol-4-yl)methyl)-1H-imidazol-4-yl)benzo[d][1,3]dioxole-5-carboxamide]", "values": [
      {"measurement": "IC50", "setting": "[1]", "result": 12.1, "unit": "µM"}
    ]},
    {"compound": "COc1cc(C(=O)Nc2cnn(Cc3c(C)noc3C)c2)cc(O)c1O", "note": "[Example 4-73, N-(1-((3,5-dimethylisoxazol-4-yl)methyl)-1H-pyrazol-4-yl)-3,4-dihydroxy-5-methoxybenzamide]", "values": [
      {"measurement": "IC50", "setting": "Table A, read-out: hT2R8 IC50", "result": 2.2, "unit": "µM"},
      {"measurement": "IC50", "setting": "[1]", "result": 2.2, "unit": "µM"}
    ]},
    {"compound": "Cc1noc(C)c1Cn1cc(N2C(=O)CN(Cc3cccc(F)c3)C2=O)cn1", "note": "[Example 10-27, 3-(1-((3,5-dimethylisoxazol-4-yl)methyl)-1H-pyrazol-4-yl)-1-(3-fluorobenzyl)imidazolidine-2,4-dione]", "values": [
      {"measurement": "IC50", "setting": "[2]", "result": 0.058, "unit": "µM"},
      {"measurement": "IC50", "setting": "unit uM, read-out: IC50 on hT2R08 bitter receptor", "result": 0.06, "unit": "µM"}
    ]}
  ]
}
